Source: the supplement of paper PMC10307832

Legend:
Assay in all cases: relative viability (nuclei count vs DMSO), 5 days (fraction); higher = more cells survive
[1] = compound: Cc1ccc2nc(NCCN)c3ncc(C)n3c2c1 + N=C(N)NC(=N)NCCc1ccccc1 [Phenformin] (partner 250 µM)
How it was run: (§1)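 Relative viability is defined as nuclei in treated wells over nuclei in vehicle wells. Duplicate plates were run and medians reported. Lung cancer cell lines in 1536-well plates were dosed by pin tool one day after seeding, with one drug or with a fixed anchor-drug dose plus five library-drug doses (not always all listed) in √10 steps, and nuclei were counted after 5 days.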

Salubrinal + Luminespib = compound: O=C(/C=C/c1ccccc1)NC(NC(=S)Nc1cccc2cccnc12)C(Cl)(Cl)Cl [Salubrinal] + CCNC(=O)c1noc(-c2cc(C(C)C)c(O)cc2O)c1-c1ccc(CN2CCOCC2)cc1 [Luminespib] (partner 0.01 µM)
How it was run: as §1

Salubrinal + Alpelisib = compound: O=C(/C=C/c1ccccc1)NC(NC(=S)Nc1cccc2cccnc12)C(Cl)(Cl)Cl [Salubrinal] + Cc1nc(NC(=O)N2CCC[C@H]2C(N)=O)sc1-c1ccnc(C(C)(C)C(F)(F)F)c1 [Alpelisib] (partner 2 µM)
How it was run: as §1

[2] = compound: Cc1ccc2nc(NCCN)c3ncc(C)n3c2c1 + CC1(C)CCC(c2ccc(Cl)cc2)=C(CN2CCN(c3ccc(C(=O)NS(=O)(=O)c4ccc(N[C@H](CCN5CCOCC5)CSc5ccccc5)c(S(=O)(=O)C(F)(F)F)c4)cc3)CC2)C1 [Navitoclax] (partner 0.5 µM)
How it was run: as §1

Cell Line | relative viability ([1]; first compound 0.04 µM) | relative viability ([1]; first compound 0.1265 µM) | relative viability ([1]; first compound 0.4 µM) | relative viability ([1]; first compound 1.265 µM) | relative viability ([1]; first compound 4 µM) | relative viability (Salubrinal + Luminespib; first compound 0.08 µM) | relative viability (Salubrinal + Luminespib; first compound 0.253 µM) | relative viability (Salubrinal + Luminespib; first compound 0.8 µM) | relative viability (Salubrinal + Luminespib; first compound 2.53 µM) | relative viability (Salubrinal + Luminespib; first compound 8 µM) | relative viability (Salubrinal + Alpelisib; first compound 0.08 µM) | relative viability (Salubrinal + Alpelisib; first compound 0.253 µM) | relative viability (Salubrinal + Alpelisib; first compound 0.8 µM) | relative viability (Salubrinal + Alpelisib; first compound 2.53 µM) | relative viability (Salubrinal + Alpelisib; first compound 8 µM) | relative viability ([2]; first compound 0.04 µM) | relative viability ([2]; first compound 0.1265 µM) | relative viability ([2]; first compound 0.4 µM) | relative viability ([2]; first compound 1.265 µM) | relative viability ([2]; first compound 4 µM)
NCI-H2405 | 0.417 | 0.385 | 0.451 | 0.371 | 0.375 | 0.591 | 0.865 | 0.62 | 0.612 | 0.668 | 0.8 | 0.845 | 0.711 | 0.79 | 0.831 | 0.849 | 0.905 | 0.936 | 0.718 | 0.725
NCI-H3122 | 0.411 | 0.379 | 0.399 | 0.36 | 0.288 | 0.117 | 0.112 | 0.0978 | 0.118 | 0.1 | 0.832 | 0.762 | 0.874 | 0.795 | 0.793 | 1.03 | 1.03 | 1.06 | 1 | 1.1
PC-3 [JPC-3] | 0.503 | 0.475 | 0.459 | 0.497 | 0.423 | 0.747 | 0.511 | 0.671 | 0.736 | 0.571 | 1.08 | 0.98 | 1.13 | 1.07 | 1.03 | 0.826 | 0.767 | 0.848 | 0.786 | 0.827
PC-14 | 0.535 | 0.69 | 0.431 | 0.607 | 0.254 | 0.23 | 0.118 | 0.134 | 0.151 | 0.126 | 1.05 | 0.756 | 1.14 | 0.968 | 0.562 | 0.985 | 1.02 | 0.993 | 0.908 | 0.856
RERF-LC-KJ | 0.404 | 0.374 | 0.462 | 0.453 | 0.353 | 1.31 | 1.37 | 1.41 | 1.13 | 1.08 | 0.912 | 0.824 | 0.925 | 0.813 | 0.698 | 0.881 | 0.821 | 1.02 | 0.65 | 0.726
SK-LU-1 | 0.649 | 0.568 | 0.614 | 0.553 | 0.43 | 0.182 | 0.201 | 0.206 | 0.214 | 0.198 | 1.1 | 0.864 | 1.35 | 1.07 | 0.951 | 1.02 | 0.898 | 0.812 | 0.769 | 0.778
SK-MES-1 | 0.688 | 0.624 | 0.69 | 0.65 | 0.605 | 0.86 | 0.932 | 0.861 | 0.613 | 0.364 | 1.01 | 0.888 | 1.09 | 0.992 | 0.664 | 1.26 | 1.33 | 1.14 | 1.13 | 1.17
SW 1573 | 0.371 | 0.368 | 0.395 | 0.424 | 0.231 | 0.211 | 0.26 | 0.206 | 0.238 | 0.169 | 0.802 | 0.909 | 0.827 | 1.04 | 0.604 | 1.07 | 0.938 | 1.16 | 1.1 | 0.689
